Experimental data as given in US20260263429A1, “INHIBITORS OF CA 2+/CALMODULIN-DEPENDENT PROTEIN KINASE II (CAMKII) THAT DO NOT INHIBIT LONG-TERM POTENTIATION (LTP) INDUCTION AND THERAPEUTIC USES THEREOF” (The Regents of the University of Colorado, A Body Corporate, priority 2023, published 2026).
Where two headings read alike, the source gives them in different places.

Columns and labels:
[1] = molecular target: purified CaMKIIα (Homo sapiens, UniProt Q9UQM7); experiment: In vitro kinase reactions with purified CaMKIIα (GluA1 S831, T286, GluN2B S1303 phosphorylation); format: biochemical; parameters: made in house; host or cells: baculovirus/Sf9 (CaMKIIα); BL21 bacteria (CaM); conditions: for Ki: 1 mM ATP, 30° C., AS283 0.41-10 μM, Cheng-Prusoff with Km ATP 33.3 μM
Procedure: In a series of exemplary methods, an in vitro kinase assay was used where purified CaMKIIα is incubated at 30° C. with GST-GluA1 alongside ATP. CaMKIIα normally phosphorylates S831 on the GluA1 subunit and this phosphorylation can be measured as a readout of CaMKIIα enzymatic activity (see e.g., FIG. 8B). […] In another exemplary method, binding of purified CaMKIIα to immobilized GST-GluN2B-c was induced by Ca^2+/CaM in the presence of a vehicle (none), 4 mM ADP or with […] AS105. […] At the same time, two exemplary methods were performed to observe ionomycin or chemical LTP (cLTP) induced co-localization of CaMKII and GluN2B either in HEK293 cells co-expressing GFP-CaMKII and mCherry-2BC or dissociated rat hippocampal cultures expressing GFP-CaMKII and mCh-PSD95 intrabody. HEK293 cells, incubating with vehicle or 10 μM AS105, were subjected to ionomycin. Hippocampal cultures, also incubating with either vehicle or 10 μM AS105, were treated with a chemical LTP (cLTP) stimulus (e.g., 100 μM glutamate, 10 μM glycine for 45 seconds). Confocal microscopy images were taken before and after each stimulus.
Therefore, in another exemplary method, the ability of AS283 to selective inhibit CAMKII enzymatic activity without interfering with its binding to GluN2B was tested. In a first method, in vitro kinase reactions were performed at 30° C. in 1 mM ATP measuring purified CaMKIIα phosphorylation of GST-GluA1 S831 with varying concentrations of AS283 (0.41-10 μM).
One possible mechanism by which AS283 could enhance GluN2B binding more than ATP is by suppressing CaMKII-mediated phosphorylation of GluN2B at S1303, as this phosphorylation within the CaMKII binding site on GluN2B reduces CaMKII binding.
In vitro phosphorylation assays. CaMKII-mediated phosphorylation of GluA1 S831 was measured by in vitro kinase reaction with purified GST-GluA1 c-terminal tail. Reactions contained 40 nM CaMKII (or water for negative controls), 1 μM GST-GluA1, 50 mM PIPES pH 7.1, 2 mM CaCl2), 10 mM MgCl2, 1 μM calmodulin, 1-4 mM ATP, and 1 PM of okadaic acid. Reactions were done at 30° C. for 20 s; reactions were stopped by adding SDS-loading buffer and incubation in a boiling water bath for 5 min. GST, phospho-S831, CaMKII, phospho-T286, or phospho-S1303 were detected in the samples by immunoblot analysis.
Km and Ki determination. The inhibition constant Ki was calculated using the Cheng-Prusoff equation for competitive inhibition: Ki=IC50/(1+[ATP]/Km).

[2] = system: synaptic localization of CaMKII F89G / K42M; experiment: Synaptic localization of GFP-CaMKII F89G or K42M mutants in rat hippocampal cultures, basal and cLTP; format: cell-based; conditions: 10 μM NM-PP1, basal and cLTP
Procedure: This conclusion also predicts that the LTP stimulus-induced movement of CaMKII to excitatory synapses should be (i) impaired in the CaMKII F89G mutant; but (ii) normalized by pharmacogenetic rescue with NM-PP1. Indeed, both predictions were observed experimentally (FIGS. 4D-4E).
Chemical LTP stimulation. Chemical LTP (CL TP) was induced with 100 μM glutamate and 10 μM glycine for 45 seconds. Treatments were followed by washout in 5 volumes of fresh ACSF. For biochemistry experiments, neurons were treated with 1 μM TTX to silence neurons prior to treatment with cLTP.
Image analysis of hippocampal neurons. […] 2D maximum intensity projection images were then generated and analyzed using a custom-build program in ImageJ. The program utilizes combinatorial thresholding to mask regions of the cell that contain high intensity PSD-95 puncta (the post-synaptic side of excitatory synapses in dendritic spines) and regions of the dendritic shaft that contain no fluorescence intensity of PSD-95. As a measure of synaptic enrichment, the ratio of mean CaMKII fluorescence intensity of the PSD-95 mask to the mean CaMKII fluorescence intensity in the dendritic shaft mask is measured. Spine growth was assessed by measuring the changes in mCherry cell fill fluorescence intensity within dendritic spine ROIs (F/F0).

Row | SMILES | Ki ([1]; read-out: apparent Ki, autophosphorylation of T286 (pT286)) | Ki ([1]; read-out: apparent Ki, phosphorylation of GluA1 S831 (pS831)) | CaMKII-mediated S1303 phosphorylation of wild type GluN2B C-terminus ([1]; purified CaMKII and GST-2BC) | effect on pT286 of CaMKII wildtype ([1]; in vitro kinase reaction in ATP) | impaired synaptic localization of CaMKII F89G mutant [2]
1 | NCCNc1cccc(-c2ccnc3[nH]c4ccccc4c23)c1 [AS283] | 71 nM | 17 nM | inhibited the CaMKII-mediated S1303 phosphorylation |  | 
2 | CC(C)(C)n1nc(Cc2cccc3ccccc23)c2c(N)ncnc21 [NM-PP1] |  |  |  | did not affect pT286 | rescued
